This note sets out measurements from ChEMBL document CHEMBL1143768, “Microwave prompted multigram synthesis, structural determination, and photo-antiproliferative activity of fluorinated 4-hydroxyquinolinones” (Bioorg Med Chem Lett, 2007).

The test system of data set [1] is Mycobacterium tuberculosis. The data set is described as follows: Growth inhibition of Mycobacterium tuberculosis at 6.25 ug/ml. It is filed as functional.
The subject of data set [2] is HL-60. Nature of the data set: Apoptotic activity in HL60 cells irradiated with 2.5 J cm^-2 at 5.0 […] after 24 hrs. It is filed as functional, Homo sapiens.
The test system of data set [3] is HL-60. Nature of the data set: Apoptotic activity in HL60 cells irradiated with 2.5 J cm^-2 at 5.0 […] after 48 hrs. Type of data set: functional, Homo sapiens.
The test system of data set [4] is HL-60. The data set is described as follows: Apoptotic activity in HL60 cells irradiated with 2.5 J cm^-2 at 5.0 […] after 72 hrs. Type of data set: functional, Homo sapiens.
The test system of a further data set is LoVo. The data set is described as follows: Photocytotoxicity against human LoVo cell line irradiated with 2.5 J cm^-2 after 72 hrs by MTT assay. Type of data set: functional. The following applies: light or radiation study. (Formazan colour is commonly taken as a measure of viable cells.)
Data set [5] deals with HL-60. Nature of the data set: Cell cycle arrest in HL60 cell line irradiated with 2.5 J cm^-2 assessed as accumulation at G1 phase at 2.5 […] after 24 hrs. Type of data set: functional, Homo sapiens.
For data set [6], the system named is HL-60. Nature of the data set: Cell cycle arrest in HL60 cell line irradiated with 2.5 J cm^-2 assessed as accumulation at G2 phase at 2.5 […] after 24 hrs. It is filed as functional, Homo sapiens.
The test system of data set [7] is HL-60. Nature of the data set: Cell cycle arrest in HL60 cell line irradiated with 2.5 J cm^-2 assessed as accumulation at S phase at 2.5 […] after 24 hrs. It is filed as functional, Homo sapiens.
In data set [8] the test system is HL-60. Nature of the data set: Apoptotic activity in HL60 cells irradiated with 2.5 J cm^-2 at 2.5 […] after 24 hrs. It is filed as functional, Homo sapiens.
The test system of data set [9] is HL-60. The data set is described as follows: Cell cycle arrest in HL60 cell line irradiated with 2.5 J cm^-2 assessed as accumulation at G1 phase at 2.5 […] after 48 hrs. Type of data set: functional, Homo sapiens.
For data set [10], the system named is HL-60. Nature of the data set: Cell cycle arrest in HL60 cell line irradiated with 2.5 J cm^-2 assessed as accumulation at G1 phase at 2.5 […] after 72 hrs. It is filed as functional, Homo sapiens.
Data set [11] relates to HL-60. The data set is described as follows: Cell cycle arrest in HL60 cell line irradiated with 2.5 J cm^-2 assessed as accumulation at G2 phase at 2.5 […] after 48 hrs. It is filed as functional, Homo sapiens.
In data set [12] the test system is HL-60. Nature of the data set: Cell cycle arrest in HL60 cell line […] cm^-2 assessed as accumulation at G2 phase at 2.5 […] after 72 hrs. Type of data set: functional, Homo sapiens.
For data set [13], the system named is HL-60. Nature of the data set: Cell cycle arrest in HL60 cell line irradiated with 2.5 J cm^-2 assessed as accumulation at S phase at 2.5 […] after 48 hrs. Type of data set: functional, Homo sapiens.
In data set [14] the test system is HL-60. Nature of the data set: Cell cycle arrest in HL60 cell line irradiated with 2.5 J cm^-2 assessed as accumulation at S phase at 2.5 […] after 72 hrs. It is filed as functional, Homo sapiens.
Data set [15] has as its system HL-60. Nature of the data set: Apoptotic activity in HL60 cells irradiated with 2.5 J cm^-2 at 2.5 […] after 48 hrs. It is filed as functional, Homo sapiens.
Data set [16] has as its system HL-60. Nature of the data set: Apoptotic activity in HL60 cells irradiated with 2.5 J cm^-2 at 2.5 […] after 72 hrs. Type of data set: functional, Homo sapiens.
Data set [17] deals with HL-60. Nature of the data set: Cell cycle arrest in HL60 cell line irradiated with 2.5 J cm^-2 assessed as accumulation at G1 phase at 5.0 […] after 24hrs. It is filed as functional, Homo sapiens.
Data set [18] concerns HL-60. The data set is described as follows: Cell cycle arrest in HL60 cell line irradiated with 2.5 J cm^-2 assessed as accumulation at G1 phase at 5.0 […] after 48 hrs. It is filed as functional, Homo sapiens.
For data set [19], the system named is HL-60. The data set is described as follows: Cell cycle arrest in HL60 cell line irradiated with 2.5 J cm^-2 assessed as accumulation at G1 phase at 5.0 […] after 72 hrs. It is filed as functional, Homo sapiens.
Data set [20] deals with HL-60. Nature of the data set: Cell cycle arrest in HL60 cell line irradiated with 2.5 J cm^-2 assessed as accumulation at G2 phase at 5.0 […] after 24hrs. It is filed as functional, Homo sapiens.
The subject of data set [21] is HL-60. Nature of the data set: Cell cycle arrest in HL60 cell line irradiated with 2.5 J cm^-2 assessed as accumulation at G2 phase at 5.0 […] after 48 hrs. Type of data set: functional, Homo sapiens.
For data set [22], the system named is HL-60. The data set is described as follows: Cell cycle arrest in HL60 cell line irradiated with 2.5 J cm^-2 assessed as accumulation at G2 phase at 5.0 […] after 72 hrs. Type of data set: functional, Homo sapiens.
Data set [23] has as its system HL-60. The data set is described as follows: Cell cycle arrest in HL60 cell line irradiated with 2.5 J cm^-2 assessed as accumulation at S phase at 5.0 […] after 24hrs. Type of data set: functional, Homo sapiens.
Data set [24] relates to HL-60. Nature of the data set: Cell cycle arrest in HL60 cell line irradiated with 2.5 J cm^-2 assessed as accumulation at S phase at 5.0 […] after 48 hrs. It is filed as functional, Homo sapiens.
The test system of data set [25] is HL-60. Nature of the data set: Cell cycle arrest in HL60 cell line irradiated with 2.5 J cm^-2 assessed as accumulation at S phase at 5.0 […] after 72 hrs. Type of data set: functional, Homo sapiens.
Data set [26] can be described thus: Photocytotoxicity against human NTCC 2544 cell line irradiated with 2.5 J cm^-2 after 72 hrs by MTT assay. It is filed as cell-based. To be noted: NTCC 2544 cells.
The subject of data set [27] is HL-60. Nature of the data set: Photocytotoxicity against human HL60 cell line irradiated with 1.25 J cm^-2 after 72 hrs by MTT assay. It is filed as functional. To be noted: HL-60, light or radiation study.
Data set [28] deals with HL-60. Nature of the data set: Photocytotoxicity against human HL60 cell line irradiated with 2.5 J cm^-2 after 72 hrs by MTT assay. It is filed as functional. To be noted: HL-60, light or radiation study.
The nature of data set [29]: Photocytotoxicity against human NTCC 2544 cell line irradiated with 1.25 J cm^-2 after 72 hrs by MTT assay. To be noted: NTCC 2544 cells. Type of data set: cell-based.
The test system of data set [30] is Mycobacterium tuberculosis. Nature of the data set: Antimicrobial activity against Mycobacterium tuberculosis. It is filed as functional.
The next data set relates to Trichophyton benhamiae. The data set is described as follows: Antifungal activity against Trichophyton mentagrophytes 445(TM) by broth microdilution test. Type of data set: functional, Arthroderma benhamiae.

Converted amounts (≈) assume the structure as drawn.

One may read the inhibition as the drop in the measured response relative to a control, in per cent. Lower therefore signals a response near the control. The compound `O=c1cc(O)c2ccccc2[nH]1` gave an inhibition at 6.25 µg/mL in data set [1] of 0%.

The term GI50 denotes the concentration giving 50% growth inhibition. The low end stands for more potent growth inhibition, the high end for less potent growth inhibition. Turning to `O=c1cc(O)c2cc(F)ccc2[nH]1`, the Activity in the data set with HL-60 [2] came to 21%; in the data set with HL-60 [3] it was 26%; in the data set on HL-60 [4] it was 46%; with HL-60 [5], 30.8%; in the data set on HL-60 [6] it was 10.8%; in the data set on HL-60 [7] it was 58.4%. In addition, the Activity with HL-60 [8] is 13.2%; in the data set with HL-60 [9] it was 44.7%; with HL-60 [10], 44.2%; in the data set with HL-60 [11] it was 10.3%; in the data set on HL-60 [12], 12%; with HL-60 [13], 45%. The Activity in the data set with HL-60 [14] is 43.8%; with HL-60 [15], 27%; in the data set with HL-60 [16], 40.5%; with HL-60 [17] it was 34.6%; in the data set with HL-60 [18], 49.6%; with HL-60 [19], 56%. The Activity in the data set on HL-60 [20] was 11.1%; in the data set with HL-60 [21], 11.7%; in the data set with HL-60 [22] it was 6.9%; with HL-60 [23], 54.3%; with HL-60 [24] it was 38.6%; in the data set with HL-60 [25], 37.1%. The inhibition at 6.25 µg/mL in [1] turned out to be 35%. The GI50 was 12.1 µM with LoVo, more than 10 µM in the data set on HL-60 [27] and 7.8 µM in the data set on HL-60 [28]. The GI50 at 72 h in data set [26] and in [29] was more than 20 µM in each case.

`O=c1cc(O)c2cccc(C(F)(F)F)c2[nH]1`: testing at 6.25 µg/mL in data set [1] gave an inhibition of 69%. The GI50 in the data set on LoVo is 10.1 µM; in the data set on HL-60 [27] it was more than 10 µM; in the data set with HL-60 [28] it was 7.3 µM. The GI50 at 72 h is 7.8 µM in data set [26] and more than 20 µM in data set [29].

The Inhibition is the drop in the measured response relative to a control, in per cent. A higher Inhibition goes with a response far below the control. `O=c1cc(O)c2ccc(C(F)(F)F)cc2[nH]1` came in with an inhibition at 6.25 µg/mL in data set [1] of 72%. Moreover, the results for the GI50 in the data set on LoVo and in the data set on HL-60 [27] were 1.8 µM and 6.2 µM, respectively. Further, in data set [30], the Inhibition was 72%. For the same compound, the GI50 at 72 h in data set [26] stood at 2.5 µM; in data set [29], 7 µM.

Take `Cc1ccc2c(O)cc(=O)[nH]c2c1`: the inhibition at 6.25 µg/mL in data set [1] was determined as 54%. Moreover, the GI50 in the data set on HL-60 [27] is more than 10 µM; with HL-60 [28], 10 µM.

In data set [1], `O=c1cc(O)c2cccc(F)c2[nH]1` displayed an inhibition at 6.25 µg/mL of 50%. Besides, the results for the GI50 in the data set with HL-60 [27] and in the data set with HL-60 [28] were more than 10 µM and 10 µM, respectively.

Consider `O=c1cc(O)c2ccc(F)cc2[nH]1`, for which, in data set [1], at 6.25 µg/mL the inhibition was 52%. Further, the 50% growth inhibitory concentration (GI50) in the data set on HL-60 [27] is more than 10 µM; with HL-60 [28] it was 10 µM.

Consider `O=c1cc(O)c2ccc(Cl)cc2[nH]1`, for which, in data set [1], the inhibition at 6.25 µg/mL turned out to be 2%.

By MIC is commonly meant the lowest concentration found to suppress growth. Higher therefore signals weaker potency. For `OC(Cn1cncn1)(Cn1cncn1)c1ccc(F)cc1F` [FLUCONAZOLE], in the data set on Trichophyton benhamiae, the MIC is 1950 µM (≈ 597 µg/mL).

`NC(=O)c1cnccn1` [PYRAZINAMIDE] had an inhibition at 6.25 µg/mL in [1] of 100%.
